Entries after “also recorded” stand apart in the source; their conditions may differ.

Consider 8 compounds from US11505797B2, “Gene knockout of variant NRF2 for treatment of cancer” (Christiana Care Health Services, Inc., priority 2019, dated 2022).

The test system of data set [1] is NRF2 locus (exon 4) in A549 cells. The experiment in a line: TIDE indel analysis of bulk sorted eGFP+ A549 cells transfected with pX458 gRNA1 or gRNA2. The note with it: bulk sorted eGFP+ A549 population, pX458 plasmid. The data set is classed as cell-based, human. The protocol:
A549 cells were transfected at a concentration of 5×10^5 cells/100 μl in 4 mm gap cuvette (BioExpress, Kaysville, Utah, USA). NRF2 targeting pX458 constructs were separately electroporated (250 V, LV, 13 ms pulse length, 2 pulses, 1 s interval) into A549 cells using a Bio-Rad Gene Pulser XCell Electroporation System (Bio-Rad Laboratories, Hercules, Calif., USA). Cells were then recovered in 6-well plates with complete growth media at 37° C. for 72 hours prior to sorting. […] Clones were expanded and transferred to larger plates as the individual clones reached confluence, with DNA isolation occurring when cells reached confluence in a six-well plate (1×10^6 cells/mL). […]
FIG. 1B illustrates the functional domains of the NRF2 protein including the KEAP1 Binding Domain, Transactivation Domain, Repressor Binding Domain, β-TrCP Binding Domain, DNA Binding Domain and the Transcriptional Activation Domain. […] To evaluate the efficiency of CRISPR-directed NRF2 knockout in the total targeted population, eGFP+ cells were isolated as a population, and the degree of genetic disruption at the NRF2 locus in cells, transfected with either gRNA1 or gRNA2 pX458, was determined. The sorted populations were Sanger-sequenced and the resulting trace files were analyzed for the presence of indels, a marker for gene disruption. […]

The subject of data set [2] is NRF2 knockout A549 cells (2-11). As to the kind of experiment: MTS cell proliferation assay, NRF2 knockout A549 cells (2-11). The data set is classed as cell-based, human. The note with it: 2-11 knockout A549, increasing dosages, 72 hours; listed as Carboplatin. The protocol: Cell viability was evaluated using the CellTiter 96 Aqueous Non-Radioactive Cell Proliferation Assay (Promega, Madison, Wis.). A549 cell lines were plated at 2×10^3 cells per well and allowed to culture for 24 hours. The cell media was then aspirated, the cells washed with PBS, then exposed to the MTS reagent for 3 hours. After 3 hours of MTS bio-reduction by proliferating cells, the formazan product's absorbance was measured using a 450 nm filter on an Infinite 2000 PRO microplate reader (Tecan, Mannadorf, Switzerland). Cell viability after drug exposure was evaluated using the CellTiter 96 Aqueous Non-Radioactive Cell Proliferation Assay. A549 cell lines were plated at 2×10^3 cells per well and allowed to culture for 24 hours. The cells were then treated with cisplatin, carboplatin, or a combination of cisplatin and vinorelbine for three days. The cell media was then aspirated, the cells washed with PBS, then exposed to the MTS reagent for 3 hours. After 3 hours of MTS bio-reduction by proliferating cells, the formazan product's absorbance was measured using a 450 nm filter on an Infinite 2000 PRO microplate reader.

The test system of data set [3] is NRF2 knockout A549 (2-11) tumors. As to the kind of experiment: Xenograft mouse model, NRF2 knockout A549 (2-11) tumors. The class given is in vivo, athymic nude mice. The note with it: tail vein day 0, 3, 6, 9; cisplatin 2 mg/kg; cisplatin 5 mg/kg + vinorelbine 5 mg/kg; carboplatin 25 mg/kg. On the procedure:
The human xenograft model was established using methodology reported previously. Kellar et al., Biomed Res. Int. […] Female athymic nude mice (Envigo, 5-6 weeks old) were used in this study. Approximately 5×10^6 cells (wild type A549 or homozygous knockout (clonal expansion 2-11)) suspended in PBS with 20% Matrigel were injected subcutaneously into right flank of each mouse. Tumor volume was measured three times a week with a digital caliper once palpable, and calculated using the formula, tumor size=ab^2/2, where ‘a’ is the larger and ‘b’ is the smaller of the two dimensions. When tumors grew up to a mean volume of around 100 mm^3, A549 tumor bearing mice or A549-2-11 tumor bearing mice were randomly divided into 7 groups (N=5 for each group) respectively and subject to dose/regimen-finding study. […] Tumor volume and body weight was closely monitored over time. After 16 days, the animals were sacrificed, with tumor removed, weighed and processed for molecular analysis. Mice were euthanized. The data were expressed as mean±SD. Student's t-test and one-way or two-way ANOVA was used to assess the significance of difference. A P value<0.05 was considered significant.
A549 xenografts were resected on day 16, snap frozen in liquid nitrogen and stored in −80° C. until usage. All immunofluorescence staining was performed as previously described. Wang et al., Investig. Opthalmology Vis. […] Briefly, tumors were embedded in Optimum Cutting Temperature (Tissue Tek, Torrance, Calif., USA) and 16-μm-thick sections were obtained with a Leica CM3050 cryostat (Leica Microsystems, Buffalo Grove, Ill., USA), and mounted on slides. Slides were fixed and incubated with blocking buffer for 1 hour at room temperature. […] Sections were washed in PBS, then mounted with SlowFade Gold antifade mountant with DAPI (Invitrogen, Carlsbad, Calif., USA). Images were obtained with a Zeiss Observer.Z1 microscope (Carl Zeiss, Inc., Gottingen, Germany). The TUNEL assay was conducted with In Situ Cell Death Detection Kit, Fluorescein (Roche, Base, Switzerland), following the manufacturer's instructions. […]

In data set [4] the test system is wildtype NRF2 gene in the H1703 cell line. As to the kind of experiment: TIDE indel efficiency of R34G sgRNA at various lengths in H1703 parental cells. The class given is cell-based, human. The note with it: for total indel efficiency: 250 pmol sgRNA to 50 pmol Cas9, 72 hours. The protocol: H1703 parental cells were cultured 48 hours prior to transfections and about 60-80% confluent on the day of transfection. 10^6 cells per 100 ul was used per transfection and each condition was run in duplicate.
Each CRISPR/Cas9 RNP was complexed at a 5:1 ratio of sgRNA to Cas9. 250 pmol of sgRNA was complexed at room temperature with 50 pmol of Cas9, in duplicate. The RNP complex was then transfected into H1703 parental cells using nucleofection (Lonza) with the SF Nucleofection Kit. Transfected cells were plated and allowed to recover for 72 hours. After the 72 hours, each sample of cells was collected by trypsinization and pelleted for further analysis. Cell pellets were used for genomic DNA isolation, PCR and Sanger sequencing.
It has been reported that gRNA length can affect target specificity (Fu et al., Nat. Biotechnol. 32:279-84 (2014)). The efficiency of indel formation of the various length R34G sgRNAs to the wildtype “on-target” site was evaluated. sgRNAs for each length were synthetized and complexed with purified Cas9. Replicate experiments were carried out with H1703 lung squamous cells that were transfected with each RNP, recovered for 72 hours, then analyzed for indel formation. No R34G site is present in the wildtype NRF2 gene in the H1703 cell line, therefore only minimal or background gene editing activity is expected.

“5′-UCGAUGUGACCGGGAAUAUCAGG-3′ (expressed or natural sequence) [gRNA1]”: the “indels by TIDE (NRF2 disruption)” value in data set [1] is given as “significant amount of indels”.

For the compound “5′-UGAUUUAGACGGUAUGCAACAGG-3′ (expressed or natural sequence) [gRNA2]”, the “indels by TIDE (NRF2 disruption)” value in data set [1] is listed as “significant amount of indels”.

As to `N.N.O=C([O-])C1(C(=O)[O-])CCC1.[Pt+2]` [carboplatin], the “chemosensitivity (MTS cell proliferation)” value in data set [2] is “the cell killing response reflected what was observed in the experiments using cisplatin”. Besides, the “tumor growth over 16 days” value in data set [3] is “the same reduced proliferation and growth trend described above is reproduced; also recorded: significant reduction in tumor cell proliferation”.

Take “AAGATATAGATCTTGGAGTAAG (listed as DNA, chemistry not given here) [22 nucleotide length sgRNA]”: in data set [4] (first value (replicate 1)), the sequence remaining wildtype was determined as 98.2% and the total indel efficiency is on record as 1.2%. Besides, in data set [4] (replicate 2), the sequence remaining wildtype was 96.5% and the total indel efficiency stood at 2.3%.

In the case of “ATAGATCTTGGAGTAAG (listed as DNA, chemistry not given here) [17 nucleotide length sgRNA]”, in data set [4] (first value (replicate 1)), the sequence remaining wildtype came out at 98.0% and the total indel efficiency worked out at 1.5%. In data set [4] (replicate 2), the sequence remaining wildtype amounted to 97.7% and the total indel efficiency amounted to 1.6%.

In the case of “CAAGATATAGATCTTGGAGTAAG (listed as DNA, chemistry not given here) [23 nucleotide length sgRNA]”, in data set [4] (first value (replicate 1)), the sequence remaining wildtype was determined as 95.8% and the total indel efficiency turned out to be 3.4%. In addition, in data set [4] (replicate 2), the sequence remaining wildtype is listed as 95.2% and the total indel efficiency amounted to 3.8%.

Regarding “GATATAGATCTTGGAGTAAG (listed as DNA, chemistry not given here) [20 nucleotide length sgRNA]”, in data set [4] (first value (replicate 1)), the sequence remaining wildtype worked out at 98.4% and the total indel efficiency is reported as 0.8%. In data set [4] (replicate 2), the sequence remaining wildtype is 96.2% and the total indel efficiency was 2.9%.

“TATAGATCTTGGAGTAAG (listed as DNA, chemistry not given here) [18 nucleotide length sgRNA]”: in data set [4] (first value (replicate 1)), the sequence remaining wildtype was determined as 97.4% and the total indel efficiency came to 1.9%. Besides, in data set [4] (replicate 2), the sequence remaining wildtype came to 96.6% and the total indel efficiency came to 2.6%.
